In patent publication US20230219898A1, “COMPOUNDS AND METHODS FOR BLOCKING APOPTOSIS AND INDUCING AUTOPHAGY” (President and Fellows of Harvard College, priority 2020, published 2023):

Experiments:
GST-TRADD = molecular target: T1, GST-TRADD (Homo sapiens, UniProt Q15628); experiment: Thermal shift assay with GST-TRADD; assay type: binding; conditions: GST-TRADD 50 μM, compound 250 μM
T1 construct: cDNA encoding GST-tagged hTRADD (Full length or aa180-312); made in house; host or cells: HEK293T (pEBG plasmid)
Source text: Thermal unfolding of GST-TRADD is monitored using SYPRO Orange. Data were collected in the presence of ICCB-19 and Apt-1, leading to a rightward shift in the unfolding transition. The apparent melting temperature (Tm) is the peak in the derivative of the unfolding curve (dF/dT), which is used as an indicator of thermal stability.
Full-length cDNAs for mouse/human TRADD were PCR-amplified from the plasmid library and cloned into pcDNA3.1 using Phanta Max Super-Fidelity DNA Polymerase (Vazyme Biotech Co., Ltd) with appropriate tags. Mutant hTRADD were generated using MutExpress II mutagenesis kit (Vazyme Biotech Co., Ltd). […]
To determine stability, purified proteins were made to a final concentration of 1 μg/l. […] The reaction was run from 25C, ramping up in increments of 0.05° C./s to a final temperature of 95C with fluorescence detection throughout the experiment to generate a dataset. Melting temperature of the protein (Tm) was determined by performing non-linear fitting of the dataset to a Boltzmann Sigmoidal curve in GraphPad Prism with the following equation: Y=Bottom+(Top-Bottom)/[1+exp(Tm-X/Slope)], where Y=fluorescence emission in arbitrary units; X=temperature; Bottom=baseline fluorescence at low temperature; Top=maximal fluorescence at top of the dataset; Slope=describes the steepness of the curve, with larger values denoting shallower curves.

TRADD-N = molecular target: T2, TRADD-N (Homo sapiens, UniProt Q15628); experiment: STD-NMR binding to TRADD-N; conditions: 1 mM compound, 13 μM TRADD-N
T2 construct: expression constructs encoding Flag-TRADD-N(1-179) and HA-TRADD-C(180-312); His (N); made in house
T2 sequence (Q15628 1-179): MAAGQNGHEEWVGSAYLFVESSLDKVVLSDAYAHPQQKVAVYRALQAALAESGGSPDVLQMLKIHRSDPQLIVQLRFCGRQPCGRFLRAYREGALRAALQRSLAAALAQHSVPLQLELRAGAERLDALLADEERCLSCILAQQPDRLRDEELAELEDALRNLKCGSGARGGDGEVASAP
Procedure: The on-resonance irradiation of TRADD-N was performed at a chemical shift of −0.5 ppm, whereas the off-resonance irradiation was conducted at 37 ppm. Spectra were acquired using the following parameters: spectral window of 6.4 kHz, number of scans at 320, acquisition time of 2 s, and repetition time of 3 s. The decrease in signal intensity in STD spectrum, resulting from the transfer of saturation from the protein to the ligand, is evaluated by subtracting the on-resonance spectrum from the off-resonance spectrum. This subtraction yields a positive signal from a bound ligand. The asterisks indicate the signals of the compounds.
This saturation quickly propagates throughout the protein by spin diffusion and is transferred to the ligand, which only occurs if it is bound, leading to reduced intensities of the ligand. The STD spectra were acquired on a 400 MHz spectrometer (ICCB-19 and Apt-1) or 800 MHz spectrometer (ICCB-19i). The samples for STD NMR were prepared as 13 μM TRADD-N or TRADD-N(G121A) with 1 mM Apt-1, ICCB-19 or ICCB-19i in 0.5 mL of PBS in D2O (10%). […] The decrease in signal intensity in STD spectrum, resulting from the transfer of saturation from the protein to the ligand, is evaluated by subtracting the on-resonance spectrum from the off-resonance spectrum.

H4 cells = experiment: Long-lived protein degradation assay; assay type: cell-based; conditions: 10 μM, 6 h
Procedure: The rates of long-lived protein turnover in H4 cells treated with indicated compounds (10 μM, 6 h); rapamycin as positive control. Values expressed as fold changes relative to normal control cells. Mean ±s.e.m. from 4 independent experiments (n=4). One-way ANOVA, post hoc Dunnett's test. **P=0.002, 0.0023 (left to right); *P=0.0229; n.s. not significant (P=0.8669).
H4 cells were cultured with L-[3,4,5-^3H(N)]-leucine (0.1 μCi/ml) (PerkinElmer Life Sciences) for 24 h and chased in media with nonradioactive leucine for 18 h to let the degradation of short-lived proteins happen. Then the media was changed and incubated for additional 6 h along with different compounds (10 μM Apt-1, 10 μM ICCB-19, 10 μM ICCB-19i, 1 μM rapamycin). The media were recovered and treated with 10% trichloroacetic acid to separate trichloroacetic acid-soluble (amino acids) and trichloroacetic acid-insoluble (proteins) fractions. The cells were completely dissolved with 1N NaOH. Radioactivity was measured with a liquid scintillation analyzer (PerkinElmer). Long-lived protein degradation was calculated by dividing trichloroacetic acid-soluble radioactivity in the media by total radioactivity detected in the cells and media. The values were expressed as changes in fold from the value obtained in control cells.

RIPK1 = molecular target: T3, RIPK1 (Homo sapiens, UniProt Q13546); experiment: Activation of overexpressed Flag-RIPK1 in HEK293T cells (p-S166); assay type: cell-based; conditions: 10 μM, 12 h
T3 construct: expressed in transfected cells; host or cells: HEK293T
Procedure: The activation of RIPK1 was determined by immunoblotting using p-S166 RIPK1 antibody.

T3 sequence (Q13546 whole entry, species assumed): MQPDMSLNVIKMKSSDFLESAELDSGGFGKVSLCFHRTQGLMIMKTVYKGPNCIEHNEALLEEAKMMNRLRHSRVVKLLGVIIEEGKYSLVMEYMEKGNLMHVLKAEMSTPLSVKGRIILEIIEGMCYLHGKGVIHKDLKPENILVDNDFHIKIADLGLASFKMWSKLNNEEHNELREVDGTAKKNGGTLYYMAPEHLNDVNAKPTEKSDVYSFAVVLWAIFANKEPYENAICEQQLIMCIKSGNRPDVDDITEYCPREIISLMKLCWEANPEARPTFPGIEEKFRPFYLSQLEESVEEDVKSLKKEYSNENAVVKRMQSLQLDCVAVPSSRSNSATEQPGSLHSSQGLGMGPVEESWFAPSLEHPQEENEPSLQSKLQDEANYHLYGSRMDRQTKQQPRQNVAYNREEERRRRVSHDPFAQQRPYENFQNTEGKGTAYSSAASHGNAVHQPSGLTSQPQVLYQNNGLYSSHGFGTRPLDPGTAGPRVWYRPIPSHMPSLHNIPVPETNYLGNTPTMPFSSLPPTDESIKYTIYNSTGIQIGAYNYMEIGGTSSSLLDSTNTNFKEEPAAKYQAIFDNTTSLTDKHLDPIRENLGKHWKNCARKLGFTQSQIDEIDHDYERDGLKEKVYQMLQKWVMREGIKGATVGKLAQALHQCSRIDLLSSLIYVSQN
T1 sequence (Q15628 whole entry, the tested form may be a part): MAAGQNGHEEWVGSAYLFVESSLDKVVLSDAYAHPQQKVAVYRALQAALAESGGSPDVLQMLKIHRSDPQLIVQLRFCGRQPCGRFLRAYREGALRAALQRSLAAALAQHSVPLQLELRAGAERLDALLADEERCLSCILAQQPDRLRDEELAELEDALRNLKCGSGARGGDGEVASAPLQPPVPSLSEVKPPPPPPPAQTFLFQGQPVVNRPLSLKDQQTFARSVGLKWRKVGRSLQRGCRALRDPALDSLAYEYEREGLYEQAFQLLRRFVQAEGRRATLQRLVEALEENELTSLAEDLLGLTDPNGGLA

Structure (SMILES)	increase of Tm of GST-TRADD (GST-TRADD) [°C]	binding with TRADD-N by STD-NMR (TRADD-N)	degradation of long-lived proteins (H4 cells)	inhibition of activation of overexpressed RIPK1 (RIPK1)
CN1CCN=C1SC(C(=O)NC1CCCCCC1)c1ccccc1 (centres unmarked) [Compound 30]	3.7	could bind with TRADD-N	effectively induced	cannot inhibit
O=C(CSC1=NCCN1)NC1CCCCCC1 [ICCB-19]	3.2	could bind with TRADD-N	effectively induced	cannot inhibit
